Experimental data as given in patent US20250129081A1, “METHANOGEN INHIBITORS” (PASTORAL GREENHOUSE GAS RESEARCH LIMITED, priority 2021, published 2025).

Test system: rumen fluid
Assay: Rumen in vitro (RIV) assay: methane production from incubated rumen fluid
Format: cell-based, cattle
Settings: for RIV % methane reduction: 60 mL rumen fluid-buffer mixture
Description: The compounds of the present invention were initially screened for activity using an in vitro fully automated incubation system for the measurement of total gas production and gas composition (methane and hydrogen). The system used is described in detail in the paper by Muetzel et al. (2014; Animal Feed Science and Technology 196, 1-11). The system in this specification is referred to as the rumen in vitro system or RIV. The RIV system provides a relatively simple tool for determining the rate and production of methane and also whether the rate and production of methane is inhibited or reduced by a particular compound or feed. Rumen in vitro assays use rumen fluid from donor animals (typically either sheep or cattle) which is typically combined with a buffer and then incubated in sealed fermentation vessels at 39° C. for either 24 or 48 h. These assays systems have been well-characterised and used by the scientific community over the last two decades (Rymer et al. 2005). The system that has been used here to characterise the effects of inhibitors on methane production and gas production, and the formation of H2, was described by Muetzel et al. (2014). Rumen in vitro assay systems reflect what can occur in the rumen in vivo, but only short-term, due to their short incubation times (typically not exceeding 48 h) which is limited by its buffering capacity and the fact that it is a closed system. Stock solutions of inhibitors were re-suspended in dimethylformamide (DMF) at concentrations 1000-fold higher than the highest used for the assays. Any further dilutions were also prepared using DMF. The total amount of inhibitor solution added to the rumen fluid-buffer mixture (60 mL) was 60 μl. Incubations used 60 ml of medium containing 12 ml of filtered rumen fluid and 48 ml of buffer in serum bottles for 24-48 h, essentially as described by Muetzel et al. (2014). Two fistulated cattle were used as donor animals for rumen fluid and treatments were incubated in duplicate bottles. Sets of duplicate incubation vials that contained ryegrass (with rumen fluid-buffer mixture), and ryegrass with 30 μM bromoethanesulfonate (BES) were also incubated as negative and positive controls, respectively. One experiment consists of 2 replicates of an inhibitor at any one concentration run at the same time, and a run can contain up to 32 bottle, including positive (30 µM BES) and negative (no inhibitor added) controls. Compound 1, for example, was tested using the 60 mL rumen in vitro assay system at 30 μM, 10 μM, 2 μM and 1 μM final concentrations and compared to a positive control with 30 μM BES. […] Compound 3 was very active in the RIV and only the lower concentrations of 2 μM and 1 μM were measured.

## O=c1[nH]c(=O)c2cc3c(=O)n(CCOc4no[n+]([O-])c4S(=O)(=O)c4ccccc4)c(=O)c3cc12 [Compound 1, 3-(phenylsulfonyl)-4-(2-(1,3,5,7-tetraoxo-3,5,6,7-tetrahydropyrrolo[3,4-f]isoindol-2(1H)-yl)ethoxy)-1,2,5-oxadiazole 2-oxide]
1 μM compound
  RIV % methane reduction: 8.9%
2 μM compound
  RIV % methane reduction: 23.3%
10 μM compound
  RIV % methane reduction: 67.8%
30 μM compound
  RIV % methane reduction: 87.1%
Bos taurus, 2 μM, at 18 h, 60 mL rumen in vitro assay system, read-out: inhibition level (methane)
  inhibition at 2 µM: ~23.3%
Bos taurus, 30 μM, at 18 h, 60 mL rumen in vitro assay system, read-out: inhibition level (methane)
  inhibition at 30 µM: ~87.1%

## O=c1c2cc3c(=O)n(CO[N+](=O)[O-])c(=O)c3cc2c(=O)n1CCOc1no[n+]([O-])c1S(=O)(=O)c1ccccc1 [Compound 2, 4-(2-(6-((nitrooxy)methyl)-1,3,5,7-tetraoxo-3,5,6,7-tetrahydropyrrolo[3,4-f]isoindol-2(1H)-yl)ethoxy)-3-(phenylsulfonyl)-1,2,5-oxadiazole 2-oxide]
1 μM compound
  RIV % methane reduction: 7.2%
2 μM compound
  RIV % methane reduction: 30.6%
10 μM compound
  RIV % methane reduction: 56.1%
30 μM compound
  RIV % methane reduction: 85.9%

## Cn1c(=O)c2cc3c(=O)n(CCOc4no[n+]([O-])c4S(=O)(=O)c4ccccc4)c(=O)c3cc2c1=O [Compound 3]
1 μM compound
  RIV % methane reduction: 49.0%
2 μM compound
  RIV % methane reduction: 80.4%
Only 2 μM and 1 μM measured
  activity in the RIV (in words): very active
